From US12172995B2, “Substituted indole and indazole compounds” (BRISTOL-MYERS SQUIBB COMPANY, priority 2018, dated 2024)

Key:
Format in all cases: cell-based
human TLR7 = molecular target: T1, human TLR7 (Homo sapiens, UniProt Q9NYK1); test: TLR7 inhibition reporter assay (HEK-Blue SEAP); settings: HEK-Blue cells overexpressing human TLR7, stimulated with gardiquimod 7.5 μM, 22 hour incubation
T1 construct: host or cells: HEK-Blue cells
T1 sequence (Q9NYK1 27-1049): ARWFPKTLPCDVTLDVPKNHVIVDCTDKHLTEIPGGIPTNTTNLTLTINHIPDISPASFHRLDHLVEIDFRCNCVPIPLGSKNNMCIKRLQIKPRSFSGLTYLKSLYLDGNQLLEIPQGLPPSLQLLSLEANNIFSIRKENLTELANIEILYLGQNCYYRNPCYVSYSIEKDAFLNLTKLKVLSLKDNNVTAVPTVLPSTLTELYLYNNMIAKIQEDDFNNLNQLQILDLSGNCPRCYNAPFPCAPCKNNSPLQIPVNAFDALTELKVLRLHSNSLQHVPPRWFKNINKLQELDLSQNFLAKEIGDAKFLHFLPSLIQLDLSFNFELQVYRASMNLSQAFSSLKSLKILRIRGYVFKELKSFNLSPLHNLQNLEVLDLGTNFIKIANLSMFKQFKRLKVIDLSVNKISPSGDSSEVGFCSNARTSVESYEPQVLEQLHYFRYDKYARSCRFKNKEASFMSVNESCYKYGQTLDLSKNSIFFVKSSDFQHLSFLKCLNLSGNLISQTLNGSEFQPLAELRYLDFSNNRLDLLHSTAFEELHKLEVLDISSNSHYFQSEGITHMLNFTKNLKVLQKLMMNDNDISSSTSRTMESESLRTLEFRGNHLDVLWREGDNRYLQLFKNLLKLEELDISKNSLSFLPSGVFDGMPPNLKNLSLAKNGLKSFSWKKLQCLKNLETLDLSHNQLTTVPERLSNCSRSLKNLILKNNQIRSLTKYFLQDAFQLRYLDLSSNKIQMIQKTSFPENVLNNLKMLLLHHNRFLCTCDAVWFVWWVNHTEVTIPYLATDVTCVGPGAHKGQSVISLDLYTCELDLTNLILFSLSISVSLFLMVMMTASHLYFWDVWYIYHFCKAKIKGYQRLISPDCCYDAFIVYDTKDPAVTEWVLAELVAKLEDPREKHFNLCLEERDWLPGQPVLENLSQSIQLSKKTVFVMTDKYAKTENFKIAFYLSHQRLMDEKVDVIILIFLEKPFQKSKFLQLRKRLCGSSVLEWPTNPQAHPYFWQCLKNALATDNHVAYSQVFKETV
In short: (§1)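 Percent inhibition reflects SEAP reduction after 22 h at 37° C, relative to agonist-plus-DMSO and known-inhibitor controls. Compounds (0.05 nM to 50 μM) were added 30 min before agonist: TLR9 cells received ODN2006 5 nM, TLR8 cells R848 15.9 μM, TLR7 cells gardiquimod 7.5 μM; human receptor-expressing HEK-Blue reporter lines.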

human TLR8 = molecular target: T2, human TLR8 (Homo sapiens, UniProt Q9NR97); test: TLR8 inhibition reporter assay (HEK-Blue SEAP); settings: HEK-Blue cells overexpressing human TLR8, stimulated with R848 15.9 μM, 22 hour incubation
T2 construct: host or cells: HEK-Blue cells
T2 sequence (Q9NR97 27-1041): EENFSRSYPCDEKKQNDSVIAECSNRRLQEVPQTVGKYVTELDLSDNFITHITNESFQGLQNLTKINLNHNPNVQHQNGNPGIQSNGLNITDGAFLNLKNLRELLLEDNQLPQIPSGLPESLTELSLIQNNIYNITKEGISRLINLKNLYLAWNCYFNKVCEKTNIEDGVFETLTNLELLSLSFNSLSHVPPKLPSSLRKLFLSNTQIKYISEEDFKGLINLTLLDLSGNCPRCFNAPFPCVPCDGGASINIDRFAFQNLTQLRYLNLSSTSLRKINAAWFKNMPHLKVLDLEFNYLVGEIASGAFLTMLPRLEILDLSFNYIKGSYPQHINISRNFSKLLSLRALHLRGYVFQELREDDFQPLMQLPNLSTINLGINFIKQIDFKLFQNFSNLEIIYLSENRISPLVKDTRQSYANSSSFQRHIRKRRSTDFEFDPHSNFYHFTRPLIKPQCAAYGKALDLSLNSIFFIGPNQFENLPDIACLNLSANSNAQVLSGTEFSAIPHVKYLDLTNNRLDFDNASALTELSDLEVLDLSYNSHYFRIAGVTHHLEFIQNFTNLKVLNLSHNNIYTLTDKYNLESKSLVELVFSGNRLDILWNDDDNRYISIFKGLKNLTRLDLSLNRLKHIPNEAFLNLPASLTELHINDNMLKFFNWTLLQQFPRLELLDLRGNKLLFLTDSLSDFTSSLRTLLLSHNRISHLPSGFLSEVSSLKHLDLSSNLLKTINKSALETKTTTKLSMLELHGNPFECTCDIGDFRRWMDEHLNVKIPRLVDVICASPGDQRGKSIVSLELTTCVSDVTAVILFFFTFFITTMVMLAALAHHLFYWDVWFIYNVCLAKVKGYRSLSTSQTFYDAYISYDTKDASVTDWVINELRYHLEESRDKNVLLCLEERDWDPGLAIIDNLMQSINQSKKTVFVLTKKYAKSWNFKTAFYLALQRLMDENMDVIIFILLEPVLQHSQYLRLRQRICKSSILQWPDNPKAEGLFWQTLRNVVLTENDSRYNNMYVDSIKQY
In short: as §1

human TLR9 = molecular target: T3, human TLR9 (Homo sapiens, UniProt Q9NR96); test: TLR9 inhibition reporter assay (HEK-Blue SEAP); settings: HEK-Blue cells overexpressing human TLR9, stimulated with ODN2006 5 nM, 22 hour incubation
T3 construct: host or cells: HEK-Blue cells
T3 sequence (Q9NR96 26-1032): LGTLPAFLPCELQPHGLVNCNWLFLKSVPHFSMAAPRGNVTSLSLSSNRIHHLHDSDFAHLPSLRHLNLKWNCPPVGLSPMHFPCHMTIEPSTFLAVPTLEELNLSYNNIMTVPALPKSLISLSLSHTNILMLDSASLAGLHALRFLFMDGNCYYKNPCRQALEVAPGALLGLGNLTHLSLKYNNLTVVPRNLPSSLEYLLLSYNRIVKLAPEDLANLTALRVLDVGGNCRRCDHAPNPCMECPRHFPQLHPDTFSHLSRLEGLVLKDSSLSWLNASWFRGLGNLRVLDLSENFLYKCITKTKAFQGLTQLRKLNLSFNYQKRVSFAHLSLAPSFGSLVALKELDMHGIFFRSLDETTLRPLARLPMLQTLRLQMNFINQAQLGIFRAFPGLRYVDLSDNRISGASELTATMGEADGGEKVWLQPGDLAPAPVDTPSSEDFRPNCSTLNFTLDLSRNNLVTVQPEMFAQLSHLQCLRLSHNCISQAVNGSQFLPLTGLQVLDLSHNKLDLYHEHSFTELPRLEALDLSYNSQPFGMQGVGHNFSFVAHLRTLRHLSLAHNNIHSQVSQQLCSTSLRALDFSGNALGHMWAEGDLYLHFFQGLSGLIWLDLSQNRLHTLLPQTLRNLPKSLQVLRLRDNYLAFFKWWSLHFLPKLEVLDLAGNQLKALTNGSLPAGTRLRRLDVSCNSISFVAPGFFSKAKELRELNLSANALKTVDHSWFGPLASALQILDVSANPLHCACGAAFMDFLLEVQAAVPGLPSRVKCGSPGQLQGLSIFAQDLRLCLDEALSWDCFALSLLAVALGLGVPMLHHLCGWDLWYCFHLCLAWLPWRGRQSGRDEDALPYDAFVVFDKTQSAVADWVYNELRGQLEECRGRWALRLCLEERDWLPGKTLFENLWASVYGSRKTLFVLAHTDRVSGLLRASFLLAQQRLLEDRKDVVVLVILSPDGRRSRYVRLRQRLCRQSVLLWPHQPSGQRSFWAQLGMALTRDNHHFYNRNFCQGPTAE
In short: as §1

| SMILES | IC50 (human TLR7) [nM] | IC50 (human TLR8) [nM] | IC50 (human TLR9) [nM] |
| --- | --- | --- | --- |
| COc1cc(-c2cc3[nH]nc(C4CCCNC4)c3cc2C)cn2ncnc12 (stereo not drawn) [Example 45, 8-methoxy-6-(5-methyl-3-(piperidin-3-yl)-1H-indazol-6-yl)-[1,2,4]triazolo[1,5-a]pyridine] | 19.2 | 0.7 | ≥ 50000 |
| Cc1cc2c(C3CCNC3)n[nH]c2cc1-c1cc(C)c2ncnn2c1 (stereo not drawn) [Example 26, 8-methyl-6-(5-methyl-3-(pyrrolidin-3-yl)-1H-indazol-6-yl)-[1,2,4]triazolo[1,5-a]pyridine] | 18.8 | 1.5 | 1320 |
| Cc1cc2c(OC3CCC(N(C)C)CC3)n[nH]c2cc1-c1cc(C)c2ncnn2c1 (single isomer, unassigned) [Example 182, N,N-dimethyl-4-((5-methyl-6-(8-methyl-[1,2,4]triazolo[1,5-a]pyridin-6-yl)-1H-indazol-3-yl)oxy)cyclohexan-1-amine] | 25.9 | 5.8 | 27400 |
| Cc1cc2c(C3CCCN(CC(=O)N(C)C)C3)n[nH]c2cc1-c1cc(C)c2ncnn2c1 (stereo not drawn) [Example 41, N,N-dimethyl-2-(3-(5-methyl-6-(8-methyl-[1,2,4]triazolo[1,5-a]pyridin-6-yl)-1H-indazol-3-yl)piperidin-1-yl) acetamide] | 20 | 1.9 | 7300 |
| Cc1cc2c(NC(=O)C3CCNCC3)n[nH]c2cc1-c1cc(C)c2ncnn2c1 [Example 202, N-(5-methyl-6-(8-methyl-[1,2,4]triazolo[1,5-a]pyridin-6-yl)-1H-indazol-3-yl)piperidine-4-carboxamide] | 266 | 15.3 | 9920 |
| Cc1cc2c(C3CCCN(CC(=O)N(C)C)C3)n[nH]c2cc1-c1cc(C)c2ncnn2c1 (stereo not drawn) [Example 57, N,N-dimethyl-2-(3-(5-methyl-6-(8-methyl-[1,2,4]triazolo[1,5-a]pyridin-6-yl)-1H-indazol-3-yl)piperidin-1-yl)acetamide] | 19.9 | 4.5 | 6900 |
| Cc1cc(-c2ccc3c(CCNC4CCNCC4)c[nH]c3c2)cn2ncnc12 [Example 13, N-(2-(6-(8-methyl-[1,2,4]triazolo[1,5-a]pyridin-6-yl)-1H-indol-3-yl)ethyl)piperidin-4-amine] | 1690 | 269 | 605 |

Stronger by IC50 (human TLR7), values ahead:

| IC50 (human TLR7) [nM] | IC50 (human TLR8) [nM] | IC50 (human TLR9) [nM] | SMILES |
| --- | --- | --- | --- |
| 1.3 | 5.3 | 1830 | Cc1cc(-c2cc(C)c3ncnn3c2)cc2[nH]nc(C3CCC(N(C)C)CC3)c12 (stereo not drawn) [Example 81, N,N-dimethyl-4-(4-methyl-6-(8-methyl-[1,2,4]triazolo[1,5-a]pyridin-6-yl)-1H-indazol-3-yl)cyclohexan-1-amine] |
| 1.3 | 0.3 | 13000 | Cc1cc(-c2cc3[nH]nc(C4CCC(N5CC(F)C5)CC4)c3cc2C(C)C)cn2ncnc12 (stereo not drawn) [Example 152, 6-(3-(4-(3-fluoroazetidin-1-yl)cyclohexyl)-5-isopropyl-1H-indazol-6-yl)-8-methyl-[1,2,4]triazolo[1,5-a]pyridine] |
| 15.8 | 1.1 | 862 | Cc1cc2c(C3CCCNC3)n[nH]c2cc1-c1cc(C)c2ncnn2c1 (stereo not drawn) [Example 24, 8-methyl-6-(5-methyl-3-(piperidin-3-yl)-1H-indazol-6-yl)-[1,2,4]triazolo[1,5-a]pyridine] |
| 15.5 | 9.4 | 18900 | Cc1cc(-c2cc3[nH]nc(C4CCC(N5CC(F)(F)C5)CC4)c3cc2C(C)C)cn2ncnc12 (single isomer, unassigned) [Example 135, 6-(3-(4-(3,3-difluoroazetidin-1-yl)cyclohexyl)-5-isopropyl-1H-indazol-6-yl)-8-methyl-[1,2,4]triazolo[1,5-a]pyridine] |
| 10.3 | 53.8 | 6050 | Cc1cc(-c2cc(C)c3ncnn3c2)cc2[nH]nc(C3CCN(C)CC3)c12 [Example 79, 8-methyl-6-(4-methyl-3-(1-methylpiperidin-4-yl)-1H-indazol-6-yl)-[1,2,4]triazolo[1,5-a]pyridine] |
